Data: patent publication US8952169B2 (Genentech, Inc., priority 2012, dated 2015)

Columns and labels:
[1] = biological target: T1, hNav1.7 (Homo sapiens (Human), UniProt Q15858); assay: Tritiated aryl sulfonamide binding to membranes from cells expressing hNav1.7 and the β1 subunit (competitive binding); conditions: read-out: NaV1.7 395 Memb Binding (IC50)
In short: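 Competitive displacement of 100 μM [3H]-labelled tritiated aryl sulfonamide from hNav1.7/β1 membranes, 18 h at room temperature in 100 mM NaCl, 20 mM Tris HCl pH 7.4. Non-specific binding defined with 1 μM unlabelled compound. Filter-bound radioactivity measured by liquid scintillation counting.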

[2] = biological target: T1, hNav1.7; assay: Patch voltage clamp electrophysiology (PatchXpress), HEK-293 cells, inactivated state block; format: cell-based; conditions: read-out: EP_PX 293 hNav1.7 (IC50)
[3] = membranes with hNav1.7 and β1 subunit, [3H]compound displacement, 18 h, room temperature
[4] = HEK-293 cells, β1 coexpressed, inactivated state, holding −60 mV

T1 sequence (Q15858 whole entry, looked up): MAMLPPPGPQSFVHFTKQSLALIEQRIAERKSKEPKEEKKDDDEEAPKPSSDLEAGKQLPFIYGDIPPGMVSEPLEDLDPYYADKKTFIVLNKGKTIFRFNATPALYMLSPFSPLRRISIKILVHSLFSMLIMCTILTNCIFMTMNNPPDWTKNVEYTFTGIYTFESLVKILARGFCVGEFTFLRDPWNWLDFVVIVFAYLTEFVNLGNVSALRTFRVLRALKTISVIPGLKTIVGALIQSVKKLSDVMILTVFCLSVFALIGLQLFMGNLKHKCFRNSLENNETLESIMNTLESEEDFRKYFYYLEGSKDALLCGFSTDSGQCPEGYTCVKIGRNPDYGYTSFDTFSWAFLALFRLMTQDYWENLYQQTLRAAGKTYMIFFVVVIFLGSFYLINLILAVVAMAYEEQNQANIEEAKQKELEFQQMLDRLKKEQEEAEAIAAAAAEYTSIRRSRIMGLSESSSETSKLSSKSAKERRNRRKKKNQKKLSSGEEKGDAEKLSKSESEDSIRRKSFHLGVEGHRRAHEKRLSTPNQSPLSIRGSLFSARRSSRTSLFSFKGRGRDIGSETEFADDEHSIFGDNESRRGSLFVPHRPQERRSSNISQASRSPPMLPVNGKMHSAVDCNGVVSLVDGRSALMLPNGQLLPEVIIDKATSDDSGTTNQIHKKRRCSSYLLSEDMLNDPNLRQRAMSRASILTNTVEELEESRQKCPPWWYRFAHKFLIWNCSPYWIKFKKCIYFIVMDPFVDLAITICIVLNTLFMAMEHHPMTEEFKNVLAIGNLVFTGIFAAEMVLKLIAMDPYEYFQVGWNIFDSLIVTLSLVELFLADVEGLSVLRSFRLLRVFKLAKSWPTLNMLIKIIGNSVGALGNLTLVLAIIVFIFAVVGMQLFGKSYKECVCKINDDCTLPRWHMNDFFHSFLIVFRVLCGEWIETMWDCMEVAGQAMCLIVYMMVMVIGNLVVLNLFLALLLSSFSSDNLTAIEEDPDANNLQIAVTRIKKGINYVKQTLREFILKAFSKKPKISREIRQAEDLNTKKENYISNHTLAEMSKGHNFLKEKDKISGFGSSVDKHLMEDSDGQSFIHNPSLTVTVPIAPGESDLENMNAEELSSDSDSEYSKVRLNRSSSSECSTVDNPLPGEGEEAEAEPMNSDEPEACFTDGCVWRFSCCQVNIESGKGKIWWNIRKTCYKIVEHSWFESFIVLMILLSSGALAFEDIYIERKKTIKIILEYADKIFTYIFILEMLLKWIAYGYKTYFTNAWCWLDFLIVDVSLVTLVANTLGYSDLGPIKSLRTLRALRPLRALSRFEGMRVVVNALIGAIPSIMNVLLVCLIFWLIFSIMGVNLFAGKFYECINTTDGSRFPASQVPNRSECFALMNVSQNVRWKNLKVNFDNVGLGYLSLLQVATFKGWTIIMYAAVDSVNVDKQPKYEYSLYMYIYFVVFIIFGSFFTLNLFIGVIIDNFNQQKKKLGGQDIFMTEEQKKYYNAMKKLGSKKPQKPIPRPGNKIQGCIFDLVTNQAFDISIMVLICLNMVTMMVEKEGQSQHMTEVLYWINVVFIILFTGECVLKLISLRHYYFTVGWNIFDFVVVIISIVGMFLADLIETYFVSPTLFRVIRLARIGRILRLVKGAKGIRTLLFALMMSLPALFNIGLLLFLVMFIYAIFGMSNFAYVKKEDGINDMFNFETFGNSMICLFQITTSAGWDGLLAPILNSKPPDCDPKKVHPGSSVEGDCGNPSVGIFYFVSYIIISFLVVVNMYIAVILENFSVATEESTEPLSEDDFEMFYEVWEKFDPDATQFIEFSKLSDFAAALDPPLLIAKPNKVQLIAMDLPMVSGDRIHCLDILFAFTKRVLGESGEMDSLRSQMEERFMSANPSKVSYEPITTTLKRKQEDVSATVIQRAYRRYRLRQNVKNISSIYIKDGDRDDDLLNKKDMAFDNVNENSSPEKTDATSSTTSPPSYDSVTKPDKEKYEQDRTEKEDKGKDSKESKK
T1 sequence (Q07699 whole entry partner, looked up): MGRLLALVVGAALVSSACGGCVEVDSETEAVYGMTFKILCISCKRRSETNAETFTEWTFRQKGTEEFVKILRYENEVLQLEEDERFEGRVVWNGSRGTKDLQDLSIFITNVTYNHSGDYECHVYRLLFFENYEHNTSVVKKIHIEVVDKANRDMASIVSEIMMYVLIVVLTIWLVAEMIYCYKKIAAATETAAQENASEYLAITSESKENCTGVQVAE

Row | Molecule | IC50 [1, 3] [nM] | IC50 [2, 4] [nM] | IC50 [1] [nM] | IC50 [2] [nM]
1 | O=C(NS(=O)(=O)N1CC(F)C1)c1cc(C2CC2)c(O[C@H]2C3CC4CC2C[C@@](Cl)(C4)C3)cc1F | 28 | 890 |  | 
2 | O=C(NS(=O)(=O)N1CC(F)C1)c1cc(C2CC2)c(OCC2CCC3CC3C2)cc1F (centres unmarked) | 11 | 520 |  | 
3 | CC1CCCC(C)C1COc1cc(F)c(C(=O)NS(=O)(=O)N2CCC2)cc1C1CC1 (centres unmarked) | 60 | 390 |  | 
4 | CC1CCCC(C)C1COc1cc(F)c(C(=O)NS(=O)(=O)N2CCC2)cc1Cl (centres unmarked) | 25 | 74 |  | 
5 | O=C(NS(=O)(=O)N1CCC1)c1cc(C2CC2)c(OCC2CCCC(F)(F)C2)cc1F (centres unmarked) | 22 | 43 |  | 
6 | CNS(=O)(=O)NC(=O)c1cc(C2CC2)c(OCC2CCCC(F)(F)C2)cc1F (centres unmarked) | 66 | 930 |  | 
7 | CS(=O)(=O)NC(=O)c1cc(C2CC2)c(OCC2CCCC(F)(F)C2)cc1F (centres unmarked) | 27 | 420 |  | 
8 | CCS(=O)(=O)NC(=O)c1cc(C2CC2)c(OCC2CCC3(CC2)CC3)cc1F | 3 | 23 |  | 
9 | CC1CCC(COc2cc(F)c(C(=O)NS(C)(=O)=O)cc2C2CC2)CC1 (centres unmarked) | 8 | 28 |  | 
10 | O=C(NS(=O)(=O)N1CCC1)c1cc(C2CC2)c(OCC2CC=C(C3CC3)CC2)cc1F (centres unmarked) | 6 | 10 |  | 
11 | CO[C@]12CC3CC(C1)[C@@H](Oc1cc(F)c(C(=O)NS(=O)(=O)N4CCC4)cc1C1CC1)C(C3)C2 | 100 | 190 |  | 
12 | CC1(COc2cc(F)c(C(=O)NS(=O)(=O)C3CC3)cc2C2CC2)CC=CCC1 (centres unmarked) | 5 | 12 |  | 
13 | CC1(COc2cc(F)c(C(=O)NS(=O)(=O)N3CCC3)cc2C2CC2)CCC2(CC1)CC2(F)F (centres unmarked) | 11 | 47 |  | 
14 | CC1(COc2cc(F)c(C(=O)NS(C)(=O)=O)cc2C2CC2)CCC(C(F)(F)F)CC1 (centres unmarked) | 4 | 59 |  | 
15 | CCc1cc(C(=O)NS(=O)(=O)N2CCC2)c(F)cc1OCC12CC3CC(CC(C3)C1)C2 | 5 | 3.3 |  | 
16 | O=C(NS(=O)(=O)CCO)c1cc(C2CC2)c(OCC23CC4CC(CC(C4)C2)C3)cc1F | 7 | 4.6 |  | 
17 | CN(C)S(=O)(=O)NC(=O)c1cc(Cl)c(OCC23CC4CC(CC(Cl)(C4)C2)C3)cc1F | 160 | 85.4 |  | 
18 | CN(C)S(=O)(=O)NC(=O)c1cc(Cl)c(OCC2(C(F)(F)F)CCC2)cc1F | 294 | 41.6 |  | 
19 | 4-(adamantan-1-ylmethoxy)-N-(azetidin-1-ylsulfonyl)-3-chloro-5-fluorobenzamide [Example 416] | 5 | 9 |  | 
20 | 5-chloro-4-(cyclohexylmethoxy)-2-fluoro-N-(methylsulfonyl)benzamide [Example 21] | 1060 | 107 |  | 

Row | Molecule | IC50 [1, 3] [nM] | IC50 [2, 4] [nM] | IC50 [1] [nM] | IC50 [2] [nM]
21 | O=C(NS(=O)(=O)N1CCC1)c1cc(C2CC2)c(OCC2CN(C(c3ccccc3)c3ccccc3)C2)cc1F (racemic) | 12 | 350 |  | 
22 | O=C(NS(=O)(=O)C1CC1)c1cc(C2CC2)c(OCC2CN(C(c3ccccc3)c3ccccc3)C2)cc1F (single isomer, unassigned) | 5 | 82 |  | 
23 | CC12CC3CC(C)(C1)CC(COc1cc(F)c(C(=O)NS(C)(=O)=O)cc1Cl)(C3)C2 [Example 23] | 13 | 22.9 |  | 
24 | CC1(C)[C@@H]2CC[C@@]1(C)[C@@H](Oc1cc(F)c(C(=O)NS(C)(=O)=O)cc1Cl)C2 [Example 25] | 220 | 27 |  | 
25 | CC(Oc1cc(F)c(C(=O)NS(C)(=O)=O)cc1Cl)C12CC3CC(CC(C3)C1)C2 (centres unmarked) [Example 31] | 1400 | 146 |  | 
26 | O=C(NS(=O)(=O)C1CC1)c1cc(Cl)c(OC2CCC(Cl)(Cl)CC2)cc1F [Example 293] | 180 | 140 |  | 
27 | CO[C@@H]1CCN(S(=O)(=O)NC(=O)c2cc(C3CC3)c(OCC34CC5CC(CC(C5)C3)C4)cc2F)C1 [Example 301] | 14 | 360 |  | 
28 | CC1(OCc2cc(F)c(C(=O)NS(C)(=O)=O)cc2Cl)CCC(F)(F)CC1 [Example 305] | 310 | 1400 |  | 
29 | CS(=O)(=O)NC(=O)c1cc(C2CC2)c(O[C@H]2C3CC4CC2C[C@](F)(C4)C3)cc1F [Example 308] | 20 | 180 |  | 
30 | CC1(C)CCC(COc2cc(F)c(C(=O)NS(=O)(=O)N3CCC3)cc2C2CC2)CC1 [Example 309] |  |  | 6 | 79
31 | CS(=O)(=O)NC(=O)c1cc(C2CC2)c(OCC23CCCCC2C3(F)F)cc1F (centres unmarked) [Example 310] | 84 | 10 |  | 
32 | COCCS(=O)(=O)NC(=O)c1cc(C2CC2)c(OCC23CCCCC2C3(F)F)cc1F (centres unmarked) [Example 311] | 30 | 53 |  | 
33 | O=C(NS(=O)(=O)N1CCC1)c1cc(C2CC2)c(COC23CC4CC(CC(C4)C2)C3)cc1F [Example 320] | 17 | 140 |  | 
34 | CS(=O)(=O)NC(=O)c1cc(F)c(OCC23CC4CC(CC(C4)C2)C3)c(Cl)c1 [Example 325] | 270 | 2500 |  | 
35 | O=C(NS(=O)(=O)C1CC1)c1cc(C2CC2)c(OCC2(C(F)(F)F)CCC2)cc1F [Example 327] | 3 | 12 |  | 
36 | O=C(NS(=O)(=O)C1CC1)c1cc(Cl)c(OCC2(C(F)(F)F)CCC2)cc1F [Example 328] | 24 | 70 |  | 
37 | O=C(NS(=O)(=O)N1CCC1)c1cc(C2CC2)c(OCC2(C(F)(F)F)CCC2)cc1F [Example 329] | 4 | 20 |  | 
38 | O=C(NS(=O)(=O)N1CCC1)c1cc(Cl)c(OCC2(C(F)(F)F)CCC2)cc1F [Example 330] | 25 | 91 |  | 
39 | CC1(F)CCC(COc2cc(F)c(C(=O)NS(=O)(=O)N3CCC3)cc2Cl)CC1 (centres unmarked) [Example 331] | 450 | 710 |  | 
40 | O=C(NS(=O)(=O)C1CC1)c1cc(C2CC2)c(OC2C3CC4CC(C3)CC2C4)cc1F (centres unmarked) [Example 332] | 4 | 27 |  | 

Row | Molecule | IC50 [1, 3] [nM] | IC50 [2, 4] [nM] | IC50 [1] [nM] | IC50 [2] [nM]
41 | O=C(NS(=O)(=O)C1CC1)c1cc(Cl)c(OC2CCC(F)(F)CC2)cc1F [Example 339] | 310 | 3300 |  | 
42 | O=C(NS(=O)(=O)N1CCC1)c1cc(C2CC2)c(OCC2CC23CCCCC3)cc1F (centres unmarked) [Example 347] | 14 | 67 |  | 
43 | COC(=O)C12CC3C[C@H](C1)C(Oc1cc(F)c(C(=O)NS(C)(=O)=O)cc1Cl)[C@@H](C3)C2 (stereo partly drawn) [Example 353, (1s,3R,4r,5S,7s)-methyl 4-(2-chloro-5-fluoro-4-((methyl-sulfonyl)carbamoyl)-phenoxy)adamantane-1-carboxylate] | 130 | 240 |  | 
44 | CC1(C)CCCC(Oc2cc(F)c(C(=O)NS(=O)(=O)N3CCC3)cc2C2CC2)C1 (centres unmarked) [Example 357] | 16 | 120 |  | 
45 | CC1(C)CCCC(Oc2cc(F)c(C(=O)NS(C)(=O)=O)cc2C2CC2)C1 (centres unmarked) [Example 358, 5-cyclopropyl-4-((3,3-dimethylcyclohexyl)oxy)-2-fluoro-N-(methylsulfonyl)benzamide] | 12 | 62 |  | 
46 | CC1CCCCC1COc1cc(F)c(C(=O)NS(=O)(=O)N2CCC2)cc1C1CC1 (centres unmarked) [Example 372] | 7 | 11 |  | 
47 | O=C(NS(=O)(=O)N1CCC1)c1cc(C2CC2)c(OCC2CC=C(Cl)CC2)cc1F (centres unmarked) [Example 376] | 20 | 30 |  | 
48 | O=C(NS(=O)(=O)N1CCC1)c1cc(C2CC2)c(OCC2CCC(Cl)(Cl)CC2)cc1F [Example 377] | 8 | 84 |  | 
49 | CS(=O)(=O)NC(=O)c1cc(C2CC2(F)F)c(OCC23CC4CC(CC(C4)C2)C3)cc1F (centres unmarked) [Example 380] | 4 | 80 |  | 
50 | O=C(NS(=O)(=O)C1CC1)c1cc(C2CC2)c(OCC2CCC3CC3C2)cc1F (centres unmarked) [Example 392] | 5 | 3 |  | 
51 | CC1CCCC(C)C1COc1cc(F)c(C(=O)NS(=O)(=O)C2CC2)cc1Cl (centres unmarked) [Example 397] | 32 | 200 |  | 
52 | CCS(=O)(=O)NC(=O)c1cc(Cl)c(OCC2CCC3(CC2)CC3)cc1F [Example 400] | 20 | 97 |  | 
53 | CS(=O)(=O)NC(=O)c1cc(C2CC2)c(OCC2CCCC(F)(F)C2)cc1F (centres unmarked) [Example 402] | 22 | 300 |  | 
54 | CNS(=O)(=O)NC(=O)c1cc(C2CC2)c(OCC2CCCC(F)(F)C2)cc1F (centres unmarked) [Example 403] | 90 | 910 |  | 
55 | O=C(NS(=O)(=O)N1CCC1)c1cc(C2CC2)c(OCC2CCCC(F)(F)C2)cc1F (centres unmarked) [Example 404] | 23 | 57 |  | 
56 | CC1(COc2cc(F)c(C(=O)NS(=O)(=O)C3CC3)cc2C2CC2)CCC(C(F)(F)F)CC1 (centres unmarked) [Example 426, 5-cyclopropyl-N-cyclopropylsulfonyl-2-fluoro-4-[[1-methyl-4-(trifluoromethyl)cyclohexyl]methoxy]benzamide] | 2 | 51 |  | 
57 | CC1(COc2cc(F)c(C(=O)NS(=O)(=O)N3CCC3)cc2C2CC2)CCC(C(F)(F)F)CC1 (centres unmarked) [Example 427, N-(azetidin-1-ylsulfonyl)-5-cyclopropyl-2-fluoro-4-[[1-methyl-4-(trifluoromethyl)cyclohexyl]methoxy]benzamide] | 3 | 130 |  | 
58 | O=C(NS(=O)(=O)C1CC1)c1cc(C2CC2)c(OCC2CCC(C(F)(F)F)CC2)cc1F (centres unmarked) [Example 428, 5-cyclopropyl-N-cyclopropylsulfonyl-2-fluoro-4-[[4-(trifluoromethyl)cyclohexyl]methoxy]benzamide] | 4 | 12 |  | 
